# Measurements published in article PMC9505425, “Targeting of the Mitochondrial TET1 Protein by Pyrrolo[3,2-b]pyrrole Chelators” (International Journal of Molecular Sciences, 2022).
# Several values for one entry are separate records, joined by “and”; a condition that tells them apart may be missing. Equal entries are not always repeated. Entries after “also recorded” stand apart in the source; their conditions may differ.
# Columns and labels:
# Caov-3 cells = experiment: MTT cytotoxicity assay, Caov-3; type: cell-based, human
# Description: (§1) The effects of the tested compounds 1–6 on HF-P4, U-118 MG, H1299, BT-20, and Caov-3 cell lines were evaluated by the MTT assay during 48 h treatment (Table 2 and Tables S2–S31). In all tested compounds, we recognized a difference in cytotoxicity between healthy cells (HF-P4) and cancer cell lines (BT-20, Caov-3, and H-1299). […] In the case of ovarian cancer, the authors discovered oncogenic and poor prognosis roles of TET1 in epithelial ovarian carcinoma (EOC). TET1 is believed to demethylate the epigenome and activate numerous oncogenic pathways in EOC. The aforementioned study presents a new mechanism where TET1 contributes to tumor development through collaboration with CK2α [21]. The overexpression of the TET1 protein was also found in triple negative breast cancer and was associated with an activation of PI3K/mTOR pathway and decreased overall survival.
# The human ovary adenocarcinoma cell line (Caov-3), purchased from ATCC (Caov-3 (ATCC® HTB-75™), Manassas, VA, USA), was used for the cytotoxicity assay (MTT). Caov-3 cells were cultivated under standard conditions in Dulbecco’s modified Eagle’s medium (ATCC, Manassas, VA, USA) supplemented with 10% FBS and streptomycin (100 μg/mL) at 37 °C at a 5% CO2 atmosphere.
# (§2) For the cytotoxicity assay, we used the following cell lines: human glioblastoma cell line U118-MG, human mammary gland/breast cell line BT-20, human ovary adenocarcinoma cell line Caov-3, and non-small-cell lung carcinoma H-1299. As previously mentioned, these cell lines contain a high level of the TET1 protein, which corresponds to a lower overall survival. In addition to these cell cultures, we used the human dermal fibroblast cell line HF-P4 as a healthy control. Determination of cytotoxicity was performed using the MTT [3-(4,5-dimethylthiazol-2-yl)-2,5-diphenyltetrazolium bromide] colorimetric assay. Viable cells from each cell line were cultured in 96-well plates (VWR, Stříbrná Skalice, Czech Republic) at a density of 1.0 × 10^5 cells per well and allowed to grow for 24 h in 200 μL of recommended medium. After a 1-day incubation, the medium was replaced with solutions of compounds 1–6 at concentration ranges of 0.1–20 μM. Each concentration was measured four times within one test, and the entire test was repeated three times. Tested compounds 1–6 were dissolved in DMSO and then diluted with corresponding medium to a final volume of 200 μL (maximum 1% DMSO). After 48 h exposure, cells were treated with 175 μL of MTT solution (P-LAB, Prague, Czech Republic) for 2 h. In the next step, MTT solution was removed, and 125 μL of DMSO (Penta, Prague, Czech Republic) was added to solubilize dark crystals of formazan formed in intact cells, and absorbance was measured at 570 nm by the enzyme-linked immunoabsorbent assay reader Infinite® 200 PRO (Tecan, Männedorf, Switzerland). The final DMSO concentration was smaller than 1% (v/v). The absorbance of untreated cells was considered 100%, and IC50 values were calculated by the GraphPad Prism 8 software. As a parameter for cytotoxicity, we used a concentration that inhibits 50% of cell growth (IC50).
# TET1 protein = molecular target: T1, TET1 protein (Homo sapiens, UniProt Q8NFU7); experiment: Fluorometric TET hydroxylase activity assay with purified TET1 enzyme; type: biochemical; conditions: screened at 10^−7 to 10^−4 M
# T1 construct: purchased Active Motif, Carlsbad, CA, USA
# T1 sequence (Q8NFU7 whole entry): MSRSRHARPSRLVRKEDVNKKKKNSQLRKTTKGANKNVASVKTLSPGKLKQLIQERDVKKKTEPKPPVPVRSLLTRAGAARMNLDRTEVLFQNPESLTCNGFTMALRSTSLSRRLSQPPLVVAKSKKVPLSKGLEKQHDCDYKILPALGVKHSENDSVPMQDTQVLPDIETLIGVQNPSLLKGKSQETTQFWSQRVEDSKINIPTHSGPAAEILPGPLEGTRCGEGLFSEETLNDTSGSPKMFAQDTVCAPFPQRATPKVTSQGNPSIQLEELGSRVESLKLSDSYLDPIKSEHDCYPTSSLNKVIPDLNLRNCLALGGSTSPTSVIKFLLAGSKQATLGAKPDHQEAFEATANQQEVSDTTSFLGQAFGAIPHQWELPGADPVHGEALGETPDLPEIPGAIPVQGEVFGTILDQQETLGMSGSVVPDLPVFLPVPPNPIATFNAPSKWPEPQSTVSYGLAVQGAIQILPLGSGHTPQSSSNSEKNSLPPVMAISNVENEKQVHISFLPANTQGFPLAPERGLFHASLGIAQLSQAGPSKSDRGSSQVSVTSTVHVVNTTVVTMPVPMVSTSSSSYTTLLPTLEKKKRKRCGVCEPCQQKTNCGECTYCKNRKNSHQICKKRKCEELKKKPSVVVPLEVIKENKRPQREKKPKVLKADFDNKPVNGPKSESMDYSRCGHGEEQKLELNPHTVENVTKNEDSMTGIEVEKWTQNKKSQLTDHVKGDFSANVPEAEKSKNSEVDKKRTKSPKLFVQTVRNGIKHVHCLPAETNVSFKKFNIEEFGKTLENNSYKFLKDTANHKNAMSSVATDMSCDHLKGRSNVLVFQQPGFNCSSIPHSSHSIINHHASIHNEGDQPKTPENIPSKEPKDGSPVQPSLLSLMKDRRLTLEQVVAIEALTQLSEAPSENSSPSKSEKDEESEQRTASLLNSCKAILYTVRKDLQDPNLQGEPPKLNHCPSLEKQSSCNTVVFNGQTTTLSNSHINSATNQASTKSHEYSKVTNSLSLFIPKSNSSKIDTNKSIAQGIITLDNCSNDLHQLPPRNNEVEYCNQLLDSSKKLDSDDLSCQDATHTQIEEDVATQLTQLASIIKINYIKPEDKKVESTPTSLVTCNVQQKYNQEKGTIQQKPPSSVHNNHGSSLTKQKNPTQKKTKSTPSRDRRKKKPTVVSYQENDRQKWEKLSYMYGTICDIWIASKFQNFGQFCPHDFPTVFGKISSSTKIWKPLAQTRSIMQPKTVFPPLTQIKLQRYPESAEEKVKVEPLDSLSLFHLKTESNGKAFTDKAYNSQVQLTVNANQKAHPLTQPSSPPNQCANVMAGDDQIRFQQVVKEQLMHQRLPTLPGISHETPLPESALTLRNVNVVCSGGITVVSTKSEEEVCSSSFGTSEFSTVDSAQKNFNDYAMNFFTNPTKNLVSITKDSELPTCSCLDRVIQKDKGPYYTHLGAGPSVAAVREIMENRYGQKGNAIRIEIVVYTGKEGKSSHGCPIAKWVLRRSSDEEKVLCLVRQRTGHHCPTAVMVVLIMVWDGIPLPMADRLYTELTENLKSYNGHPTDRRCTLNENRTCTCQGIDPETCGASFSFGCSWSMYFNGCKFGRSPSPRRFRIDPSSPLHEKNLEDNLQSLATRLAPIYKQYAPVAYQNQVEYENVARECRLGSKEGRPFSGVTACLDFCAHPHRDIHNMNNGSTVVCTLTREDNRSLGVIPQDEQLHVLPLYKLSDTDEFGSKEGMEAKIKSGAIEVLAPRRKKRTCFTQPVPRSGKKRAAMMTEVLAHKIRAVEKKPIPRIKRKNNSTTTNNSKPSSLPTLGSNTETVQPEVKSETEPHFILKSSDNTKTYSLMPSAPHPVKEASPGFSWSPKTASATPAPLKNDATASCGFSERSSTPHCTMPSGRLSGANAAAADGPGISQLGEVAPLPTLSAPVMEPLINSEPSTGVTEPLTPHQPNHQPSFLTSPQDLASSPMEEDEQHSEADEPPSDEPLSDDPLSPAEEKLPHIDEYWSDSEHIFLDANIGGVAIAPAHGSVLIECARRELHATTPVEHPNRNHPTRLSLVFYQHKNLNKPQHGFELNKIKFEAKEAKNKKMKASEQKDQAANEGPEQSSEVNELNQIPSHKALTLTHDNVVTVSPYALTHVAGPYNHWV
# Description: Figure 4 and Table S1 show the dependence of TET1 activity on the concentration of compound 1.
# Compounds 1–6 were tested for the inhibition of the total 5mC hydroxylase TET enzyme using a purified TET1 enzyme (Active Motif, Carlsbad, CA, USA) by a fluorometric TET hydroxylase activity quantification kit (Abcam, Cambridge, UK). A total of 25 µg of purified TET1 protein was diluted in a TET assay buffer in a 5 mL volumetric flask, containing α-ketoglutarate and ferric sulfate. The concentrations of ascorbic acid, α-ketoglutarate, and ferric sulfate in the diluted TET assay buffer were 2, 1, and 0.1 mM, respectively. Tested compounds were dissolved in DMSO to obtain a concentration of 0.01 M. DMSO solutions of compounds 1–6 were then diluted with a TET assay buffer to concentrations of 10^−6, 10^−5, 10^−4, and 10^−3 M (in 10% of DMSO). Subsequently, 50 μL of the final TET assay buffer containing the TET1 protein and 5 μL of chelator’s solution was applied to each sample well. In control wells (TET1 without inhibitors), 5 μL of the final TET assay buffer with 10% DMSO was used instead of chelator’s solution. The final concentrations of chelators in a well plate were 10^−7, 10^−6, 10^−5, 10^−4, and 0 M with less than 1% of final concentration of DMSO. The following steps were performed according to manufacturer’s protocol. The TET1 protein converts methylated substrate to hydroxymethylated products, which could be recognized by a specific antibody. We determined the residual activity of the TET1 protein by measuring a fluorescence intensity on an enzyme-linked immunoabsorbent assay reader (ELISA), Infinite® 200 PRO (Tecan, Switzerland, Switzerland), at an excitation wavelength at 530 nm and an emission wavelength at 590 nm. Each concentration was measured twice within one test, and each test was repeated three times. IC50 values of active inhibitors were determined using GraphPad Prism 8 via nonlinear regression.
# BT-20 cells = experiment: MTT cytotoxicity assay, BT-20; type: cell-based, human
# Description: as §1
# The human mammary gland/breast cell line (BT-20), purchased from ATCC (BT-20 (ATCC® HTB-19™), Manassas, VA, USA), was used for the cytotoxicity assay (MTT), and BT-20 cells were cultivated under standard conditions in Eagle’s minimum essential medium (ATCC, Manassas, VA, USA) supplemented with 10% FBS and streptomycin (100 μg/mL) at 37 °C at a 5% CO2 atmosphere.
# as §2
compound,measurement,setting,value
CCN(CC)c1ccc(/C=N/NC(=O)c2ccc(-c3cc4c(cc(-c5ccc(C(=O)N/N=C/c6ccc(N(CC)CC)cc6O)cc5)n4-c4ccc(C)cc4)n3-c3ccc(C)cc3)cc2)c(O)c1 [Compound 2],Cell viability %,"Caov-3 cells; Caov-3, 100 nM, 48 h, repeats, 0.1 µM",105.779% and 93.87%
same,Cell viability %,"Caov-3 cells; Caov-3, 500 nM, 48 h, repeats, 0.5 µM",78.8105% and 77.85%
same,Cell viability %,"Caov-3 cells; Caov-3, 750 nM, 48 h, repeats, 0.75 µM",73.37% and 52.9% and 76.29%
same,Cell viability %,"Caov-3 cells; Caov-3, 1 uM, 48 h, repeats, 1 µM",78.5% and 67.16% and 48.54%
same,Cell viability %,"Caov-3 cells; Caov-3, 2.5 uM, 48 h, repeats, 2.5 µM",64.6096% and 82.47% and 61.81%
same,Cell viability %,"Caov-3 cells; Caov-3, 5 uM, 48 h, repeats, 5 µM",59.21% and 86.03% and 70.4727%
same,Cell viability %,"Caov-3 cells; Caov-3, 7.5 uM, 48 h, repeats, 7.5 µM",79.2% and 67.97%
same,Cell viability %,"Caov-3 cells; Caov-3, 10 uM, 48 h, repeats, 10 µM",51.36% and 52.95%
same,Cell viability %,"Caov-3 cells; Caov-3, 15 uM, 48 h, repeats, 15 µM",50.9752% and 42.33%
same,Cell viability %,"Caov-3 cells; Caov-3, 20 uM, 48 h, repeats, 20 µM",25.3% and 23.25%
same,viability at 0.1 µM,"Caov-3 cells; Homo sapiens, Caov-3, 48 h, Caov-3, 100 nM, repeats, read-out: Cell viability %",95.3%
same,viability at 0.5 µM,"Caov-3 cells; Homo sapiens, Caov-3, 48 h, Caov-3, 500 nM, repeats, read-out: Cell viability %",76.2%
same,viability at 7.5 µM,"Caov-3 cells; Homo sapiens, Caov-3, 48 h, Caov-3, 7.5 uM, repeats, read-out: Cell viability %",73.3%
same,viability at 10 µM,"Caov-3 cells; Homo sapiens, Caov-3, 48 h, Caov-3, 10 uM, repeats, read-out: Cell viability %",52.1%
same,viability at 15 µM,"Caov-3 cells; Homo sapiens, Caov-3, 48 h, Caov-3, 15 uM, repeats, read-out: Cell viability %",42.8%
same,viability at 20 µM,"Caov-3 cells; Homo sapiens, Caov-3, 48 h, Caov-3, 20 uM, repeats, read-out: Cell viability %",28.4%
same,IC50,"Caov-3 cells; Homo sapiens, Caov-3, MTT, 48 h",13.3 µM
same,inhibitory activity towards TET1,TET1 protein,no inhibitory effect; also recorded: no significant inhibition
same,Cell viability %,"BT-20 cells; BT-20, 100 nM, 48 h, repeats, 0.1 µM",89.53% and 96.38% and 111.3369%
same,Cell viability %,"BT-20 cells; BT-20, 500 nM, 48 h, repeats, 0.5 µM",89.9% and 93.14%
same,Cell viability %,"BT-20 cells; BT-20, 750 nM, 48 h, repeats, 0.75 µM",105.3004% and 102.8159%
same,Cell viability %,"BT-20 cells; BT-20, 1 uM, 48 h, repeats, 1 µM",123.7041% and 111.0298% and 97.09%
same,Cell viability %,"BT-20 cells; BT-20, 2.5 uM, 48 h, repeats, 2.5 µM",100.513% and 96.3761%
same,Cell viability %,"BT-20 cells; BT-20, 5 uM, 48 h, repeats, 5 µM",79.33% and 68.98%
same,Cell viability %,"BT-20 cells; BT-20, 7.5 uM, 48 h, repeats, 7.5 µM",62.62% and 57%
same,Cell viability %,"BT-20 cells; BT-20, 10 uM, 48 h, repeats, 10 µM",57.5% and 51.13%
same,Cell viability %,"BT-20 cells; BT-20, 15 uM, 48 h, repeats, 15 µM",49.9% and 44.54%
same,Cell viability %,"BT-20 cells; BT-20, 20 uM, 48 h, repeats, 20 µM",24.61% and 32.37%
same,viability at 0.5 µM,"BT-20 cells; Homo sapiens, BT-20, 48 h, BT-20, 500 nM, repeats, read-out: Cell viability %",89.8%
same,viability at 0.75 µM,"BT-20 cells; Homo sapiens, BT-20, 48 h, BT-20, 750 nM, repeats, read-out: Cell viability %",88.9%
same,viability at 2.5 µM,"BT-20 cells; Homo sapiens, BT-20, 48 h, BT-20, 2.5 uM, repeats, read-out: Cell viability %",98.6%
same,viability at 5 µM,"BT-20 cells; Homo sapiens, BT-20, 48 h, BT-20, 5 uM, repeats, read-out: Cell viability %",73.8%
same,viability at 7.5 µM,"BT-20 cells; Homo sapiens, BT-20, 48 h, BT-20, 7.5 uM, repeats, read-out: Cell viability %",60.2%
same,viability at 10 µM,"BT-20 cells; Homo sapiens, BT-20, 48 h, BT-20, 10 uM, repeats, read-out: Cell viability %",45%
same,viability at 15 µM,"BT-20 cells; Homo sapiens, BT-20, 48 h, BT-20, 15 uM, repeats, read-out: Cell viability %",46.7%
same,viability at 20 µM,"BT-20 cells; Homo sapiens, BT-20, 48 h, BT-20, 20 uM, repeats, read-out: Cell viability %",28.3%
same,IC50,"BT-20 cells; Homo sapiens, BT-20, MTT, 48 h",11.9 µM
